# Laboratory results published in patent publication US20160263005A1, “TOPICAL COMPOSITIONS AND METHODS FOR SKIN LIGHTENING” (AVON PRODUCTS, INC., priority 2014, published 2016).
# System: Human epidermal melanocytes from dark-pigmented skin
# Assay: Melanin content in human epidermal melanocytes after 8 days of incubation (absorbance at 405 nm)
# Format: cell-based
# Settings: for % Pigmentation (percent change of melanin absorbance relative to vehicle control): 8 days of incubation; for Effect on pigmentation, in words: at the concentrations of Table 1
# Method: The Compound of Formula (II) was examined for its ability to reduce pigmentation in vitro in human melanocytes. Human epidermal melanocytes from dark-pigmented skin were seeded in 6-well dishes and grown using commercially available Medium 254, a sterile, liquid medium prepared with 200 μM calcium chloride for the culture of human epidermal melanocytes, supplemented with 1% Penicillin/Streptomycin and 1% Human Melanocyte Growth Supplement. Corresponding controls were maintained without histamine, Diphenylhydramine HCl and Compound II. Four replicates were tested for each combination. After 8 days of incubation, melanin was collected and processed by washing the wells with 1× phosphate-buffered saline (PBS), followed by addition of 200 μL of 2M NaOH to three of the four replicates, which are then scraped, pooled and boiled at 80° C. for an hour. Melanin absorption was then measured at 405 nm using a spectrophotometer.
# A larger (positive or negative) percent change indicates a larger increase or reduction in melanin.
Structure (SMILES),% Pigmentation (percent change of melanin absorbance relative to vehicle control) (5 μM),"Effect on pigmentation, in words",% Pigmentation (percent change of melanin absorbance relative to vehicle control) (0.0001%),% Pigmentation (percent change of melanin absorbance relative to vehicle control) (0.001%)
"NCCc1c[nH]cn1 [Histamine, reference compound]",58.75%,significant increase in pigmentation,–,–
NC(=O)COc1ccc(C(=O)NCc2ccc(CN3CCCCC3)cc2)cc1 [Compound (II)],–,effective to reduce pigmentation,−28.30%,−75.25%
